Data taken from paper PMC10940605, “Design, synthesis and in vitro anticancer activity of some new lomefloxacin derivatives” (Scientific Reports, 2024).

How the values were obtained:
[1] = tested on: 60 human cancer cell lines; test: NCI-60 SRB screen, whole panel; type: cell-based; conditions: Homo sapiens, 48 h; One Dose Mean Graph, Conc 1.00E-5 Molar; read-out: Mean Growth Percent
[2] = tested on: HS 578T; test: NCI-60 SRB screen; type: cell-based; conditions: Homo sapiens, 10^–5 Molar, read-out: Percent growth inhibition
Description: (§1) All newly synthesized compounds were selected and screened for anticancer activity against 60 human cancer cell lines representing 9 types of tumors including leukemia, melanoma, lung, colon, CNS, ovarian, renal, prostate, and breast cancers at the National Cancer Institute (NCI), Bethesda, USA. Screening was performed utilizing a single dose (10^−5 M concentration) and cells were incubated for 48 h. The end point was determined using sulforhodamine B (SRB) dye.
(§2) In this study, all the 16 newly synthesized compounds were submitted to the National Cancer Institute (USA) for anticancer evaluation and were selected and evaluated using 60 different human tumor cell lines representing lung, colon, CNS, ovarian, renal, prostate, breast cancers as well as leukemia and melanoma. A single dose (10^–5 Molar) was used for the initial screening for evaluation of anticancer activity. The 60 human cancer cell lines were provided by the national cancer institute biomedical research campus in Frederick, Maryland.
(§3) 60 different human cancer cell lines were utilized to screen the newly synthesized compounds for anticancer activity according to the previously reported standard procedure[24]–[26] as follows: • 96 well microtiter plates were used to inoculate the cells at […] ranging from 4000–5000 cells/well depending on the replication time of individual cell lines. Roswell Park Memorial Institute culture medium (RPMI 1640 medium) containing 2 mM L-glutamine and fetal bovine serum was used to grow the cells at 37 °C, 5% CO2, 95% air and 100% relative humidity for 24 h. • Fixation of cells in two plates of each cell line in situ was done using trichloroacetic acid (TCA). This represented the measurement of cell population at the time of drug addition (Tz). • Dimethyl sulfoxide (DMSO) was used to dissolve the synthesized compounds at 400-fold the desired final maximum concentration and frozen prior to use. This frozen concentrate was melted and diluted to twice the final concentration with complete medium containing 50 µg/mL gentamycin at time of drug addition. • The final compound concentration was obtained by adding 100 µL of the synthesized compounds to the appropriate microtiter wells already containing 100 µL followed by incubation of the plates at 37 °C, 5% CO2, 95% air and 100% relative humidity for 48 h. • Fixation of the cells was achieved by gentle addition of 50 µL of cold 50% (w/v) TCA followed by incubation for 60 min at 4 °C. The supernatant was then discarded and the plates are washed 5 times with tap water and air dried. • Sulphorhodamine B (SRB) solution (100 µL) at 0.4% (w/v) in 1% acetic acid was added to each plate followed by incubation for 10 min at room temperature. The unbound dye was then removed by washing five times with 1% acetic acid and plates were air dried. • Dissolution of the bound stain was done using […] trizma base and the absorbance was read at […] wavelength using an automated plate reader. • The percentage growth inhibition was calculated as follows: Ti-Tz/C-Tz×100forconcentrationswhichTi≥Tz Ti-Tz/Tz×100forconcentrationswhichTi<Tz • Time zero (Tz) • Control growth (C) • Test growth in the presence of drug (Ti)

[3] = tested on: UO-31; test: NCI-60 SRB screen; type: cell-based; conditions: Homo sapiens; UO-31, 10^–5 Molar; read-out: Percent growth inhibition
Description: as §1, §2, §3

[4] = tested on: SNB-19; test: NCI-60 SRB screen; type: cell-based; conditions: Homo sapiens; SNB-19, 10^–5 Molar; read-out: Percent growth inhibition
Description: as §1, §2, §3

[5] = tested on: SF-539; test: NCI-60 SRB screen; type: cell-based; conditions: Homo sapiens; SF-539, 10^–5 Molar; read-out: Percent growth inhibition
Description: as §1, §2, §3

[6] = tested on: MDA-MB-231/ATCC; test: NCI-60 SRB screen; type: cell-based; conditions: Homo sapiens, 10^–5 Molar, read-out: Percent growth inhibition
Description: as §1, §2, §3

[7] = tested on: SW-620; test: NCI-60 SRB screen; type: cell-based; conditions: Homo sapiens; SW-620, 10^–5 Molar; read-out: Percent growth inhibition
Description: as §1, §2, §3

[8] = tested on: CAKI-1; test: NCI-60 SRB screen; type: cell-based; conditions: Homo sapiens; CAKI-1, 10^–5 Molar; read-out: Percent growth inhibition
Description: as §1, §2, §3

[9] = tested on: OVCAR-4; test: NCI-60 SRB screen; type: cell-based; conditions: Homo sapiens; OVCAR-4, 10^–5 Molar; read-out: Percent growth inhibition
Description: as §1, §2, §3

[10] = tested on: BT-549; test: NCI-60 SRB screen; type: cell-based; conditions: Homo sapiens; BT-549, 10^–5 Molar; read-out: Percent growth inhibition
Description: as §1, §2, §3

[11] = tested on: MDA-MB-435; test: NCI-60 SRB screen; type: cell-based; conditions: Homo sapiens; MDA-MB-435, 10^–5 Molar; read-out: Percent growth inhibition
Description: as §1, §2, §3

[12] = tested on: SNB-75; test: NCI-60 SRB screen; type: cell-based; conditions: Homo sapiens; SNB-75, 10^–5 Molar; read-out: Percent growth inhibition
Description: as §1, §2, §3

[13] = tested on: SK-MEL-2; test: NCI-60 SRB screen; type: cell-based; conditions: Homo sapiens; SK-MEL-2, 10^–5 Molar; read-out: Percent growth inhibition
Description: as §1, §2, §3

[14] = tested on: MCF7; test: NCI-60 SRB screen; type: cell-based; conditions: Homo sapiens; MCF7, 10^–5 Molar; read-out: Percent growth inhibition
Description: as §1, §2, §3

[15] = tested on: NCI-H522; test: NCI-60 SRB screen; type: cell-based; conditions: Homo sapiens; NCI-H522, 10^–5 Molar; read-out: Percent growth inhibition
Description: as §1, §2, §3

[16] = tested on: UACC-62; test: NCI-60 SRB screen; type: cell-based; conditions: Homo sapiens; UACC-62, 10^–5 Molar; read-out: Percent growth inhibition
Description: as §1, §2, §3

[17] = tested on: LOX IMVI; test: NCI-60 SRB screen; type: cell-based; conditions: Homo sapiens, 10^–5 Molar, read-out: Percent growth inhibition
Description: as §1, §2, §3

[18] = tested on: PC-3; test: NCI-60 SRB screen; type: cell-based; conditions: Homo sapiens; PC-3, 10^–5 Molar; read-out: Percent growth inhibition
Description: as §1, §2, §3

[19] = tested on: NCI/ADR-RES; test: NCI-60 SRB screen; type: cell-based; conditions: Homo sapiens, 10^–5 Molar, read-out: Percent growth inhibition
Description: as §1, §2, §3

[20] = tested on: U251; test: NCI-60 SRB screen; type: cell-based; conditions: Homo sapiens, U-251; U251, 10^–5 Molar; read-out: Percent growth inhibition
Description: as §1, §2, §3

[21] = tested on: SF-268; test: NCI-60 SRB screen; type: cell-based; conditions: Homo sapiens; SF-268, 10^–5 Molar; read-out: Percent growth inhibition
Description: as §1, §2, §3

[22] = tested on: K-562; test: NCI-60 SRB screen; type: cell-based; conditions: Homo sapiens, K562; K-562, 10^–5 Molar; read-out: Percent growth inhibition
Description: as §1, §2, §3

[23] = tested on: MALME-3M; test: NCI-60 SRB screen; type: cell-based; conditions: Homo sapiens, 10^–5 Molar, read-out: Percent growth inhibition
Description: as §1, §2, §3

[24] = tested on: SK-MEL-28; test: NCI-60 SRB screen; type: cell-based; conditions: Homo sapiens; SK-MEL-28, 10^–5 Molar; read-out: Percent growth inhibition
Description: as §1, §2, §3

[25] = tested on: M14; test: NCI-60 SRB screen; type: cell-based; conditions: Homo sapiens; M14, 10^–5 Molar; read-out: Percent growth inhibition
Description: as §1, §2, §3

[26] = tested on: SF-295; test: NCI-60 SRB screen; type: cell-based; conditions: Homo sapiens; SF-295, 10^–5 Molar; read-out: Percent growth inhibition
Description: as §1, §2, §3

[27] = tested on: MDA-MB-468; test: NCI-60 SRB screen; type: cell-based; conditions: Homo sapiens; MDA-MB-468, 10^–5 Molar; read-out: Percent growth inhibition
Description: as §1, §2, §3

[28] = tested on: OVCAR-8; test: NCI-60 SRB screen; type: cell-based; conditions: Homo sapiens; OVCAR-8, 10^–5 Molar; read-out: Percent growth inhibition
Description: as §1, §2, §3

[29] = tested on: ACHN; test: NCI-60 SRB screen; type: cell-based; conditions: Homo sapiens, 10^–5 Molar, read-out: Percent growth inhibition
Description: as §1, §2, §3

[30] = tested on: 786-0; test: NCI-60 SRB screen; type: cell-based; conditions: Homo sapiens; 786-0, 10^–5 Molar; read-out: Percent growth inhibition
Description: as §1, §2, §3

[31] = tested on: NCI-H322M; test: NCI-60 SRB screen; type: cell-based; conditions: Homo sapiens, 10^–5 Molar, read-out: Percent growth inhibition
Description: as §1, §2, §3

[32] = tested on: OVCAR-5; test: NCI-60 SRB screen; type: cell-based; conditions: Homo sapiens; OVCAR-5, 10^–5 Molar; read-out: Percent growth inhibition
Description: as §1, §2, §3

[33] = tested on: NCI-H23; test: NCI-60 SRB screen; type: cell-based; conditions: Homo sapiens; NCI-H23, 10^–5 Molar; read-out: Percent growth inhibition
Description: as §1, §2, §3

[34] = tested on: A498; test: NCI-60 SRB screen; type: cell-based; conditions: Homo sapiens; A498, 10^–5 Molar; read-out: Percent growth inhibition
Description: as §1, §2, §3

Structure (SMILES) | melting point [°C] | activity at 10 µM [1] [%] | inhibition at 10 µM [2] [%] | inhibition at 10 µM [3] [%] | inhibition at 10 µM [5] [%] | inhibition at 10 µM [6] [%] | inhibition at 10 µM [8] [%] | inhibition at 10 µM [9] [%] | inhibition at 10 µM [10] [%] | inhibition at 10 µM [11] [%] | inhibition at 10 µM [12] [%] | inhibition at 10 µM [14] [%] | inhibition at 10 µM [15] [%] | inhibition at 10 µM [16] [%] | inhibition at 10 µM [17] [%] | inhibition at 10 µM [18] [%] | further results
CCn1cc(C(=O)O)c(=O)c2cc(F)c(N3CCN(CC(=O)Nc4ccc(S(N)(=O)=O)cc4)C(C)C3)c(F)c21 (stereo not drawn) [Compound 5d, 1-Ethyl-6,8-difluoro-7-(3-methyl-4-(2-oxo-2-((4-sulfamoylphenyl)amino)ethyl)piperazin-1-yl)-4-oxo-1,4-dihydroquinoline-3-carboxylic acid] | 228 to 230 | 103 | 0.41 | 12.9 | 0.93 | 0.31 | 3.88 | 3.58 | 0.7 | 1.15 | 11.9 | 5.22 | 6.33 | 9.32 | 4.12 | 1.64 | inhibition at 10 µM [4]: 3.07%; inhibition at 10 µM [7]: 0.37%; inhibition at 10 µM [13]: 2.33%; inhibition at 10 µM [19]: 0.27%
CCn1cc(C(=O)O)c(=O)c2cc(F)c(N3CCN(CC(=O)Nc4ccc(OC)cc4)C(C)C3)c(F)c21 (stereo not drawn) [Compound 5c, 1-Ethyl-6,8-difluoro-7-(4-(2-((4-methoxyphenyl)amino)-2-oxoethyl)-3-methylpiperazin-1-yl)-4-oxo-1,4-dihydroquinoline-3-carboxylic acid] | 196 to 198 | 98.8 | 8.53 | 19.1 | 3.21 | 13.7 | 11.4 | 8.21 | 3.31 | 6.19 | 12.8 | 1.91 | 6.89 | 12.6 | 14 | 4.07 | inhibition at 10 µM [20]: 0.32%; inhibition at 10 µM [21]: 8.23%; inhibition at 10 µM [22]: 5.75%; inhibition at 10 µM [23]: 3.82%; inhibition at 10 µM [24]: 5.79%; inhibition at 10 µM [25]: 2.85%; inhibition at 10 µM [26]: 2%; inhibition at 10 µM [27]: 3.75%; inhibition at 10 µM [28]: 3.62%; inhibition at 10 µM [29]: 0.45%; inhibition at 10 µM [30]: 4.78%; inhibition at 10 µM [31]: 5.28%; inhibition at 10 µM [32]: 0.25%; inhibition at 10 µM [33]: 0.84%; inhibition at 10 µM [34]: 24.1%
